Broadly, the EC90 is the point of the concentration-response curve where the effect stands at 90%.

One test concerns HCV replicon cells. The test is described as follows: Cell-based HCV replicon assay (replicon RNA level by real time PCR, Taqman). As to conditions: Hepatitis C virus, 72 h, HCV replicon cells, harvested day 3, replicon RNA by real time PCR; given as number; read-out: EC90 (μM) range. The procedure, abridged: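 Readout: ΔCT between NS5B replicon RNA and GAPDH by real-time RT-PCR in lysates harvested on day 3, fitted sigmoidally; EC50 at ΔCT=1, EC90 at ΔCT=3.2. Compounds tested at ten 2-fold dilutions from 25 μM to 1 μM start, 10% FBS, 0.5% DMSO.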
Background: In antiviral work, replicon cells carry a viral genome segment that copies itself.
Consider `CCCOc1cc2cc(-c3c(C)nc(NCC4CC4)nc3N[C@@H]3C[C@H](CO)[C@@H](O)[C@H]3O)oc2cn1` [Example 62], for which the EC90 was found to be 0.7 µM.

Staying with this test, now noted: Hepatitis C virus, 72 h, HCV replicon cells, harvested day 3, replicon RNA by real time PCR; reported as range class; read-out: EC90 (μM) range.
For the compound `COc1cc2cc(-c3c(Cl)nc(N)nc3N[C@@H]3C[C@H](COC(=O)C(F)(F)F)[C@@H](O)[C@H]3O)oc2cn1` [Example 10], the EC90 was less than 0.5 µM.

As to `CN(C)c1ccc2nc(-c3c(Cl)nc(N)nc3N[C@@H]3C[C@H](CO)[C@@H](O)[C@H]3O)sc2c1` [Example 115], the EC90 was more than 5 µM.

With `CC(C)CNc1nc(Cl)c(-c2nc3ccccc3s2)c(N[C@@H]2C[C@H](CO)[C@@H](O)[C@H]2O)n1` [Example 320], the EC90 was less than 0.5 µM.

With `NC(=O)c1ccc2oc(-c3c(Cl)nc(N)nc3N[C@@H]3C[C@H](CO)[C@@H](O)[C@H]3O)cc2c1` [Example 173], the EC90 is more than 5 µM.

With `Nc1nc(Cl)c(-c2ncco2)c(N[C@@H]2C[C@H](CO)[C@@H](O)[C@H]2O)n1` [Example 106], the EC90 was more than 5 µM.

As to `CO[C@@H](C)CNc1nc(Cl)c(-c2nc3ccccc3s2)c(N[C@@H]2C[C@H](CO)[C@@H](O)[C@H]2O)n1` [Example 228], the EC90 is less than 0.5 µM.

With `CNc1nc(Cl)c(-c2nc3ccccc3s2)c(N(C)[C@@H]2C[C@H](CO)[C@@H](O)[C@H]2O)n1` [Example 404], the EC90 is more than 5 µM.

The test is the same for the next values; noted with them: Hepatitis C virus, 72 h, HCV replicon cells, harvested on day 3, replicon RNA by real time PCR; calculated EC90 reported as range class; read-out: EC90 (μM) range.
Regarding `COC(C)(C)CNc1nc(C)c(-c2nc3ccccc3s2)c(N[C@@H]2C[C@H](CO)[C@H]3OC(C)(C)O[C@H]32)n1` [Example 471], the 90% effect concentration (EC90) is less than 0.5 µM.

As for `CCCCCNc1nc(C)c(-c2cc3cc(CCC)nc(C)c3o2)c(N[C@@H]2C[C@H](CO)[C@@H](O)[C@H]2O)n1` [Example 448], the EC90 was less than 0.5 µM.

On to `CCc1cc2cc(-c3c(C)nc(NCC4CC4)nc3N[C@@H]3C[C@H](CO)[C@@H](O)[C@H]3O)oc2cn1` [Example 509], for which the EC90 was less than 0.5 µM.

As for `Cc1nc(NCc2cc3ccccc3s2)nc(N[C@@H]2C[C@H](CO)[C@@H](O)[C@H]2O)c1-c1nc2ccccc2s1` [Example 478], the EC90 was less than 0.5 µM.

Still in this test, the particulars now being: Hepatitis C virus, 72 h, HCV replicon cells, replicon RNA level by real time PCR (Taqman), day 3; calculated EC90; read-out: EC90 (μM) range.
`Cc1nc(NCC2CC2)nc(N[C@@H]2C[C@H](CO)[C@@H](O)[C@H]2O)c1-c1nc2cnccc2o1` [Example 2003]: the EC90 is 0.5 to 5 µM.

For `Cc1nc(NCC(F)(F)F)nc(N[C@@H]2C[C@H](CO)[C@@H](O)[C@H]2O)c1-c1nc2ncccc2o1` [Example 2008], the EC90 was 0.5 to 5 µM.

The same test, now with this note: Hepatitis C virus, 72 h, HCV replicon cells, replicon RNA level by real time PCR (Taqman), harvested on day 3; calculated EC90 reported as range class; read-out: EC90 (μM) range.
`Cc1nc(Nc2ncco2)nc(N[C@@H]2C[C@H](CO)[C@@H](O)[C@H]2O)c1-c1nc2ccccc2s1` [Example 1226]: the EC90 was more than 5 µM.

As to `Cc1nc(Nc2ccc(F)cc2)nc(N[C@@H]2C[C@H](CO)[C@@H](O)[C@H]2O)c1-c1nc2cnccc2s1` [Example 1053], the EC90 is less than 0.5 µM.

The test is the same for the next values; noted with them: Hepatitis C virus, 72 h, HCV replicon cells, replicon RNA level by real time PCR, harvested day 3; read-out: EC90 (μM) range.
With `Cc1nc(NCC(F)(F)F)nc(N[C@@H]2CC[C@@H](O)C2O)c1-c1nc2ccccc2s1` (stereo partly drawn) [Example 1625], the 90% effect concentration (EC90) fell in the range of 0.5 to 5 µM.

Consider `Cc1nc(NCC2CC2)nc(N[C@@H]2C[C@H](CO)[C@@H](O)[C@H]2O)c1-c1nc2c(CC(C)C)nccc2s1` [Example 1370], for which the EC90 was less than 0.5 µM.

For `Cc1nc(NCc2cccs2)nc(N[C@@H]2C[C@H](CO)[C@@H](O)[C@H]2O)c1-c1cc2ccccc2s1` [Example 1602], the EC90 is more than 5 µM.

For the compound `Cc1nc(NCC2CC2)nc(N[C@@H]2C[C@H](C(C)O)[C@@H](O)[C@H]2O)c1-c1nc2cnccc2s1` (stereo partly drawn) [Example 1641], the EC90 is less than 0.5 µM.

On to `Cc1nc(NCC(F)(F)F)nc(N[C@@H]2CC[C@@H](O)[C@@]2(C)O)c1-c1nc2cnccc2s1` [Example 1809], for which the EC90 was in the range of 0.5 to 5 µM.

These data come from patent US8697694B2, “Substituted pyridine and pyrimidine derivatives and their use in treating viral infections” (priority 2008, dated 2014).
